Read-outs that look alike come from different tables or passages of the source.
Columns and labels:
[1] = molecular target: T1, human NET (Homo sapiens, UniProt P23975); assay: cell-based
T1 construct: expressed in transfected cells

[2] = molecular target: T2, DAT (Homo sapiens, UniProt Q01959); assay: cell-based
T2 construct: expressed in transfected cells

[3] = molecular target: T3, SERT (Homo sapiens, UniProt P31645); assay: Uptake-inhibition of [3H]5-HT in HEK293 cells stably expressing human SERT; assay type: cell-based
T3 construct: expressed in transfected cells

[4] = molecular target: T3, SERT; details: read-out: IC50 SERT; QSAR data matrix; unit inferred; compounds not tested in this paper, source not given, presumably ref Mayer et al., 2019; cited from earlier work
[5] = LC-MS/MS detection of mephedrone metabolites in a human urine sample; assay type: in vivo; parameters: key to Detected in urine samples: detected (+); not detected (−); details: for detection in human urine sample: achiral LC-MS/MS, after enzymatic workup; for Detected in urine samples: human urine, mephedrone user, only syn- and anti-configurations could be separated
Excerpt: The biological specimen, human urine, was provided by the Department of Chemical Analytics, Seibersdorf Laboratories GmbH. The sample was taken from a subject postmortem in a fatal case of drug overdose. […] Given this fact, we assumed that also the metabolites would be detectable in sufficient quantity. To evaluate the presence of any metabolites whatsoever in the urine sample we designed an achiral separation protocol for liquid chromatography and we coupled it with triple quadrupole mass spectrometer. The advantage of LC-MS/MS system is that even if two substances have the same retention time, they can still be differentiated by their fragmentation pattern. More in details, the samples for urine analysis were analyzed using a CTC HTS PAL autosampler (CTC Analytics) and a Thermo Surveyor LC system (Thermo) interfaced to a TSQ Quantum Discovery Max triple quadrupole mass spectrometer (Thermo). A C18 security guard cartridge (4 × 2 mm) (Phenomenex) was used for sample clean-up and the analytical HPLC column was a Kinetex 1.7 μm C18 100Å 150 × 2.1 mm (Phenomenex) and Cortecs T3, 2.7 μm C18 120Å 100 × 2.1 mm (Waters). Column selection was performed by a Maylab Mistraswitch column selector (Maylab Analytical Instruments). The solvents were 0.2% formic acid in water (A) and acetonitrile (B). The temperature of the analytical column was maintained at 40°C. The mass spectrometer was equipped with heated electrospray ionization (ESI) source and was operated in positive ionization mode with a spray voltage set at 4500V. The capillary temperature was adjusted to 320°C. The sheath and auxiliary gas (nitrogen) flow rate was 25 and 10 arbitrary units, respectively. The system was operated in selected […] (srm) mode with argon as the collision gas at a pressure of 1.5 mTorr. For the achiral separation, stem solutions were prepared by weighing the reference substances in volumetric flasks and filling them up with MeOH (99.9%; HPLC grade), creating average concentration of 1 mg/ml. Then dilution solutions were prepared as follows: 10 μL of stem solution was filled up to 5 ml MeOH, creating dilution […]. Samples were prepared from dilution solutions by taking out 25 μL and mixing it together with 25 μL of ISP, 50 μL ISS and filled up to 1 ml with Milli-Q water. The final sample solvent was water/MeOH 9/1. For the enzymatic workup, phosphate buffer (1 ml, 0.8M, pH = 7), β-glucuronidase/arylsulfatase (25 μL) and β-glucuronidase (25 μL) were added to the solutions. The solutions were heated at 50°C during 1 h upon which EtOAc (7 ml) was added. The solution was put into shaker for 10min, following centrifugation for 5 min. The organic phase was separated and evaporated into dryness in stream of pressurized nitrogen. The residue was taken up in 150 μL MQ-water/MeOH 9/1 + 0.4% formic acid, heated at 50°C for 5 min and subjected to LC-MS analysis.
If on one hand the synthesis of putative metabolites allows the establishment of structure activity relationships, on the other hand, it provides pure material to evaluate their presence in human urine samples and determine their pharmacological relevance. To determine the presence of any metabolites in the urine sample, we have designed an achiral separation protocol and coupled the liquid chromatography with triple quadrupole mass spectrometer (LCMS/MS). With the LCMS/MS system two substances with the same retention time, can still be differentiated by their fragmentation pattern. Since metabolites carrying a primary alcohol functionality can form glucuronide and sulfate conjugates, we performed an enzymatic workup of the urine sample in order to cleave them. Apart from the parental drug, we detected 4-OH-MMC and 4-MC (nor-meph) which we have both already identified in our previous publication ([Mayer et al., 2019]), and the two previously uncharacterized metabolites 4-COOH-MC and dihydro-4-MC (Figure 6). […]

[6] = molecular target: T3, SERT; assay: Transporter electrophysiology (whole cell patch clamp), HEK293 cells stably expressing SERT; assay type: cell-based; details: compound applied at 30 µM, -60 mV
Method: (§1) Human embryonic kidney 293 cells (HEK293 cells) were cultivated in Dulbecco’s Modified Eagle Medium (DMEM), containing 10% heat-in- activated fetal calf serum (FCS), streptomycin (100 μg x 100 ml−1) and penicillin (100 U × 100 ml−1). Geneticin (50 μg x mL−1) was added to select HEK293 cells stably expressing the human isoforms of DAT, NET and SERT as described earlier ([Mayer et al., 2016a]). Cell lines were maintained in a sub-confluent state in humidified atmosphere (37°C, 5% CO2). For uptake inhibition experiments cells expressing the desired transporter were seeded the days before the experiment (40,000 cells per well) or two days before the experiments (20,000 cells per well) onto poly-D-lysine (PDL) coated 96-well plates 24 h prior to the experiment. In the case of transporter-electrophysiology cells were cultivated in 10 cm dishes and 24 h before the experiments they were detached, and seeded at low density onto PDL-coated 3 cm dishes.
(§2) Transporter electrophysiology was conducted by the means of whole cell patch clamp in HEK293 cells stably expressing DAT or SERT. Substrate-induced currents were recorded under voltage clamp (−60 mV). Cells were continuously superfused with a physiological external solution that contains 140 mM NaCl, 2.5 mM CaCl2, 2 mM MgCl2, 20 mM glucose and 10 mM HEPES, pH = 7.4. The pipette solution contained 133 mM potassium gluconate, 6 mM NaCl, 1 mM CaCl2, 0.7 mM MgCl2, 10 mM HEPES, 10 mM EGTA, pH = 7.2. Currents elicited by mephedrone 30 μM, were measured at room temperature (20–24°C) using an […] amplifier and pClamp 11.2 software (MDS Analytical Technologies). All the solutions perfused onto the cell were applied using a DAD-12 superfusion system and a 8-tube perfusion manifold (ALA Scientific Instruments), which allowed for rapid solution exchange. Current traces were filtered at 1 kHz and digitized at 10 kHz using a Digidata 1,550 (MDS Analytical Technologies). […] For the analysis, passive holding currents were subtracted, and the traces were filtered using a 100-Hz digital Gaussian low-pass filter.

[7] = molecular target: T2, DAT; assay: Transporter electrophysiology (whole cell patch clamp), HEK293 cells stably expressing DAT; assay type: cell-based; details: compound applied at 30 µM, -60 mV
Method: as §1, §2

[8] = QSAR data matrix, from IC50 DAT, read-out: pIC50 DAT (converted)
[9] = mean (95% confidence interval), non-linear regression, read-out: IC50 (µM) NET
[10] = mean (95% confidence interval), non-linear regression, read-out: IC50 (µM) DAT
[11] = IC50 (µM) SERT, mean (95% confidence interval), non-linear regression
[12] = IC50 SERT, QSAR data matrix, unit inferred
[13] = mean (95% confidence interval), non-linear regression, read-out: IC50 (µM) SERT
[14] = QSAR data matrix, unit inferred, read-out: IC50 SERT

T3 sequence (P31645 whole entry): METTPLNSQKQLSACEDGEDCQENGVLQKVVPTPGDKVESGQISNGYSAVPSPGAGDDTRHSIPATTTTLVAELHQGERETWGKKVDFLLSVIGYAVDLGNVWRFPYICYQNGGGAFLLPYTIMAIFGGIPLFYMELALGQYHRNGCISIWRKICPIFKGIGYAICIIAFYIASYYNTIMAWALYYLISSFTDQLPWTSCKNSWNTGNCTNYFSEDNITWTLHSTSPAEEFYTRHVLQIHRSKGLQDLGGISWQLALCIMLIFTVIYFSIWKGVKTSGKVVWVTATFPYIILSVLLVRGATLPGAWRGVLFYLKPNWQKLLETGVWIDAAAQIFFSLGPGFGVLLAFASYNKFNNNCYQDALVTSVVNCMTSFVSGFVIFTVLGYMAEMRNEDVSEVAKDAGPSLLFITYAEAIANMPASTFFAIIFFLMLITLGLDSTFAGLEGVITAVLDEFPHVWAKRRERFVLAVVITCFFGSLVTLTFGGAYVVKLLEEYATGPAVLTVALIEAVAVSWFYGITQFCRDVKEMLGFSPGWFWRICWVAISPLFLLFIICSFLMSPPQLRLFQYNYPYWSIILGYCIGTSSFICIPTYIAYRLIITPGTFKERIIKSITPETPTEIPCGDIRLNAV
T1 sequence (P23975 whole entry): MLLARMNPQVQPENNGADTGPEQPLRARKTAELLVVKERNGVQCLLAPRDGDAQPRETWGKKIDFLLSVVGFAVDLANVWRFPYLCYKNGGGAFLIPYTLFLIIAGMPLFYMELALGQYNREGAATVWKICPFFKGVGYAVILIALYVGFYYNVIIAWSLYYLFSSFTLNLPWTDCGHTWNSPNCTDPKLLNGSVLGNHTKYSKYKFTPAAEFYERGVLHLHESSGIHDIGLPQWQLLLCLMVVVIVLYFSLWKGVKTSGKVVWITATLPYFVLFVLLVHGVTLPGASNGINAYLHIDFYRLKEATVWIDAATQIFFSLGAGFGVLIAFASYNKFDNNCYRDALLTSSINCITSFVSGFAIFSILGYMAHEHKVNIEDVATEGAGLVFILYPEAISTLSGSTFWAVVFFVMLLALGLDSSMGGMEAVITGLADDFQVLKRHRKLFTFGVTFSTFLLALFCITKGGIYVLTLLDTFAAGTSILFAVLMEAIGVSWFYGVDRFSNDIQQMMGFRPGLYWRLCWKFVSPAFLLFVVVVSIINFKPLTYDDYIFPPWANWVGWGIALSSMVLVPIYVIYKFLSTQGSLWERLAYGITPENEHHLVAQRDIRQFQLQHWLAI
T2 sequence (Q01959 whole entry): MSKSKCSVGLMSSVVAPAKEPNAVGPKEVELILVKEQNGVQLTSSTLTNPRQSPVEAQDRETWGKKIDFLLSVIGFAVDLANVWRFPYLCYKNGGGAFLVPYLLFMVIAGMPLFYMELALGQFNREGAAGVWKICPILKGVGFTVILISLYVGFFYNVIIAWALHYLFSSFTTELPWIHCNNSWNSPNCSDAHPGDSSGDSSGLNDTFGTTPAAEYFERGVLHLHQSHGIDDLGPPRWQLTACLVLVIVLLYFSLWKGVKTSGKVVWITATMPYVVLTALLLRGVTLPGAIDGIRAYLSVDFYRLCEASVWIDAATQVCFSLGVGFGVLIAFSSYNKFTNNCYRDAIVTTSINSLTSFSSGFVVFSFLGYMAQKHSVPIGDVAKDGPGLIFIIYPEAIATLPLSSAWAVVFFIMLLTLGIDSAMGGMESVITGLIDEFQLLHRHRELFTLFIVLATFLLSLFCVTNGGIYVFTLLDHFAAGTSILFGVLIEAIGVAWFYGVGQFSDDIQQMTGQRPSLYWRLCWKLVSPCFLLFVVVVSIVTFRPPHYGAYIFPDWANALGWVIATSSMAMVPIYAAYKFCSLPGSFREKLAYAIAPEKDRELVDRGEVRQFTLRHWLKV

| Structure (SMILES) | IC50 [2, 8] | Selectivity ratio NET/DAT [1] | IC50 [1, 9] | Selectivity ratio DAT/SERT [2] | IC50 [2, 10] | Detected in urine samples [5] | IC50 [3, 13] | also measured |
| --- | --- | --- | --- | --- | --- | --- | --- | --- |
| CN[C@H](C)C(=O)c1ccc(C)cc1 [2R-MMC, R-mephedrone, reference compound] | 0.776 µM |  |  |  |  |  |  | IC50 [1]: 2.75 µM; IC50 ([3]; pIC50 SERT, QSAR data matrix, from IC50 SERT): 74.1 µM; IC50 [4]: 74.8 µM |
| CNC(C)C(=O)c1ccc(CO)cc1.Cl (stereo not drawn) [4-OH-MMC, 4-OH-mephedrone, reference compound] |  |  |  |  |  |  |  | detection in human urine sample [5]: detected |
| Cc1ccc([C@@H](O)[C@@H](C)N)cc1 [Dihydro-(R,R)-4-MC] | 8.13 µM | 0.44 | 18.1 µM | 9.26 | 8.05 µM | + |  | SERT-mediated current [6]: elicited only SERT-mediated currents; IC50 [3, 11]: 74.6 µM; IC50 [3, 12]: 74.6 µM; DAT-mediated current ([7]; listed as dihydro-(R,R)-4-MC): absence of DAT-mediated current; DAT-mediated current ([7]; listed as dihydro-(R,R)-4 MC): elicited only SERT-mediated currents |
| C[C@@H](N)[C@H](O)c1ccc(CO)cc1 [Dihydro-(R,R)-4-OH-MC] | 28.2 µM | 0.61 | 46.5 µM | 48.42 | 28.3 µM | − | 1370 µM | SERT-mediated current [6]: did not elicit any DAT or SERT-mediated current; IC50 ([3]; in Figure 3, read-out: IC50(SERT)): 1400 µM; DAT-mediated current [7]: did not elicit any DAT or SERT-mediated current |
| C[C@H](N)[C@H](O)c1ccc(CO)cc1 [Dihydro-(R,S)-4-OH-MC] | 100 µM | 1.60 | 62 µM | 3.86 | 99.1 µM | − | 383 µM | IC50 [3, 14]: 383 µM |
| CN[C@@H](C)[C@H](O)c1ccc(CO)cc1 [Dihydro-(R,S)-4-OH-MMC] | 85.1 µM | 1.57 | 53.9 µM | 5.87 | 84.5 µM | − | 496 µM | IC50 [3, 14]: 496 µM |
| Cc1ccc([C@H](O)[C@@H](C)N)cc1 [Dihydro-(S,R)-4-MC] | 15.5 µM | 0.37 | 41.8 µM | 11.53 | 15.5 µM | + |  | IC50 [3, 11]: 178 µM; IC50 [3, 12]: 178 µM; DAT-mediated current [7]: absence of DAT-mediated current |
| C[C@@H](N)[C@@H](O)c1ccc(CO)cc1 [Dihydro-(S,R)-4-OH-MC] | 91.2 µM | 1.09 | 83.4 µM | 12.68 | 91.2 µM | − | 1160 µM |  |
| CN[C@H](C)[C@@H](O)c1ccc(CO)cc1 [Dihydro-(S,R)-4-OH-MMC] | 77.6 µM | 1.55 |  | 40.99 | 77 µM | − | 3160 µM | IC50 ([1]; QSAR data matrix, from IC50 NET, read-out: pIC50 NET (converted)): 50.1 µM |
| C[C@H](N)[C@@H](O)c1ccc(CO)cc1 [Dihydro-(S,S)-4-OH-MC] | 58.9 µM | 4.71 | 12.6 µM | 9.92 | 59.2 µM | − | 588 µM |  |
| CN[C@@H](C)[C@@H](O)c1ccc(CO)cc1 [Dihydro-(S,S)-4-OH-MMC] | 162 µM | 0.55 | 291 µM | 11.49 | 161 µM | − | 1850 µM |  |
| Cc1ccc(C(O)C(C)N)cc1 (stereo not drawn) [dihydro-4-MC, dihydro-4-nor-mephedrone] |  |  |  |  |  |  |  | detection in human urine sample [5]: detected |
| CNC(C)C(O)c1ccc(CO)cc1 (stereo not drawn) [dihydro-4-OH-MMC] |  |  |  |  |  |  |  | detection in human urine sample [5]: not found |

Reference: article PMC8063026 (Frontiers in Pharmacology, 2021)
